Test results taken from US12048281B2, “Method for treating post-emergent rice” (BASF SE, priority 2009, dated 2024).

Tests used:
[1] = test system: transgenic Indica1 rice callus, ACC gene containing I1781(Am)L and I2041(Am)N; assay: Growth of transgenic Indica1 callus on selection media; format: cell-based, Oryza sativa; details: construct I1781(Am)L
Method: (§1) Indica1 and Nipponbare rice callus transformation was carried out essentially as described in Hiei and Komari (2008) with the exception of media substitutions as specified (see attached media table for details). Callus was induced on R001M media for 4-8 weeks prior to use in transformation. Agrobacterium utilized was LBA4404(pSB1) (Ishida et al. 1996) transformed with RLM185 (L. Mankin, unpublished: contains DsRed and a mutant AHAS for selection), ACC gene containing I1781(Am)L, ACC gene containing I1781(Am)L and W2027C, ACC gene containing I1781(Am)L and I2041(Am)N, or ACC gene containing I1781(Am)A or wild type which also contains a mutant AHAS gene for selection. Agrobacterium grown for 1-3 days on solid media was suspended in M-LS-002 medium and the OD660 adjusted to approximately 0.1. Callus was immersed in the Agrobacterium solution for approximately 30 minutes. Liquid was removed, and then callus was moved to filter paper for co-culture on semi-solid rice cc media. Co-culture was for 3 days in the dark at 24° C. Filters containing rice callus were directly transferred to R001M media containing Timentin for 1-2 weeks for recovery and cultured in the dark at 30° C. Callus was subdivided onto fresh R001M media with Timentin and supplemented with 100 μM Imazethapyr, 10 μM Cycloxydim or 2.5 μM Tepraloxydim. After 3-4 weeks, callus was transferred to fresh selection media. Following another 3-4 weeks, growing callus was transferred to fresh media and allowed to grow prior to Taqman analysis. Taqman analysis was for the Nos terminator and was conducted to provide for a molecular confirmation of the transgenic nature of the selected calli. Growth of transgenic calli was measured with various selection agents by subculturing calli on media containing either 10 μM Cycloxydim or Haloxyfop, 2.5 μM Tepraloxydim or 100 μM Imazethapry. Calli size was measured from scanned images following initial subculture and then after approximately 1 month of growth.
(§2) As can be observed in Table 7, the double mutant constructs allowed for growth on both Cycloxydim and Tepraloxydim in addition to Haloxyfop. The levels utilized in these growth experiments are inhibitory for wild type material. Growth was measured as a % change in size following 1 month of culture on the selection media.

[2] = test system: transgenic Indica1 rice callus, ACC gene containing I1781(Am)L and W2027(Am)C; assay: as above; format: cell-based, Oryza sativa; details: construct I1781(Am)L
Method: as §1, §2

[3] = test system: rice plants containing the I1,781(Am)L heterozygous mutation; format: in vivo, Oryza sativa; details: 400-1600 g ai/ha with 0.1% methylated seed oil; rated 1 and 2 weeks after treatment
Method: (§3) Selected mutants and escapes were transferred to small pots. Wild-type cultivars and 3 biovars of red rice were germinated from seed to serve as controls.
(§4) After ca. 3 weeks post-transplant. M0 regenerants were sprayed using a track sprayer with 400-1600 g ai/ha cycloxydim (BAS 517H) supplemented with 0.1% methylated seed oil. After the plants had adapted to greenhouse conditions, a subset were sprayed with 800 g ai/ha cycloxydim. Once sprayed, plants were kept on drought conditions for 24 hours before being watered and fertilized again. Sprayed plants were photographed and rated for herbicide injury at 1 (FIG. 3) and 2 weeks after treatment (FIG. 4). […] FIGS. 5-15 provide nucleic acid and/or amino acid sequences of acetyl-Coenzyme A carboxylase enzymes from various plants. FIG. 17 provides a graph showing results for mutant rice versus various ACCase inhibitors.

[4] = test system: control plants (wild-type cultivars, red rice) and tissue culture escapes; assay: Greenhouse track-sprayer test, herbicide injury rating; format: in vivo, Oryza sativa; details: 400-1600 g ai/ha with 0.1% methylated seed oil; rated 1 and 2 weeks after treatment
Method: as §3, §4

[5] = test system: ACCase-inhibitor tolerant rice plants; assay: Field treatment of ACCase-inhibitor tolerant rice; format: in vivo, Oryza sativa; details: 600 g/ha; data not shown

SMILES: CCc1cnc(C2=NC(C)(C(C)C)C(=O)N2)c(C(=O)O)c1 (centres unmarked) [P100, Imazethapyr]
- Growth, % change in size following 1 month of culture on the selection media ([1]; 100 μM in selection media): 634%
- Growth, % change in size following 1 month of culture on the selection media ([2]; 100 μM in selection media): 739%

SMILES: CCCC(=NOCC)C1=C(O)CC(C2CCCSC2)CC1=O (centres unmarked) [cycloxydim]
- herbicide injury [3]: No injury
- herbicide injury [4]: heavily damaged
- herbicide tolerance in the field [5]: Herbicide tolerance phenotypes as described herein have also been exhibited
- Growth, % change in size following 1 month of culture on the selection media ([1]; 10 μM in selection media): 884%
- Growth, % change in size following 1 month of culture on the selection media ([2]; 10 μM in selection media): 867%

SMILES: CC(Oc1ccc(Oc2ncc(C(F)(F)F)cc2Cl)cc1)C(=O)O (centres unmarked) [haloxyfop]
- Growth, % change in size following 1 month of culture on the selection media ([1]; 10 μM in selection media): 1613%
- Growth, % change in size following 1 month of culture on the selection media ([2]; 10 μM in selection media): 1669%

SMILES: CC/C(=N\OC/C=C/Cl)C1=C(O)CC(C2CCOCC2)CC1=O (centres unmarked) [tepraloxydim]
- Growth, % change in size following 1 month of culture on the selection media ([1]; 2.5 μM in selection media): 1360%
- Growth, % change in size following 1 month of culture on the selection media ([2]; 2.5 μM in selection media): 1416%
